Results from ChEMBL document CHEMBL1137396, “Discovery of (1R,5S)-N-[3-amino-1-(cyclobutylmethyl)-2,3-dioxopropyl]- 3-[2(S)-[[[(1,1-dimethylethyl)amino]carbonyl]amino]-3,3-dimethyl-1-oxobutyl]- 6,6-dimethyl-3-azabicyclo[3.1.0]hexan-2(S)-carboxamide (SCH 503034), a selective, potent, orally bioavailable hepatitis C virus NS3 protease …” (J Med Chem, 2006).
pKi: −log10 of the molar value.

Legend:
[1] = AUC in rat at 10 mg/kg, po; type: ADME, organism-based; parameters: dose 10 mg/kg, route oral; details: plasma
[2] = Bioavailability in dog at 2 mg/kg, po; type: ADME, organism-based, Canis lupus familiaris; details: in vivo
Huh-5-2 = assay: Cytotoxicity against hepatoma cell line containing HCV replicon measured as change in GAPDH RNA level; type: functional, Homo sapiens
[3] = Bioavailability in rat at 10 mg/kg, po; type: ADME, organism-based; details: in vivo
[4] = AUC in dog at 2 mg/kg, po; type: ADME, organism-based, Canis lupus familiaris; parameters: dose 2 mg/kg, route oral; details: plasma
NS3 = NS3 (Hepatitis C virus, UniProt A3EZJ3); assay: Binding affinity at HCV NS3 protease; parameters: species or system Hepatitis C virus subtype 1b
Sequence of NS3 (A3EZJ3 whole entry): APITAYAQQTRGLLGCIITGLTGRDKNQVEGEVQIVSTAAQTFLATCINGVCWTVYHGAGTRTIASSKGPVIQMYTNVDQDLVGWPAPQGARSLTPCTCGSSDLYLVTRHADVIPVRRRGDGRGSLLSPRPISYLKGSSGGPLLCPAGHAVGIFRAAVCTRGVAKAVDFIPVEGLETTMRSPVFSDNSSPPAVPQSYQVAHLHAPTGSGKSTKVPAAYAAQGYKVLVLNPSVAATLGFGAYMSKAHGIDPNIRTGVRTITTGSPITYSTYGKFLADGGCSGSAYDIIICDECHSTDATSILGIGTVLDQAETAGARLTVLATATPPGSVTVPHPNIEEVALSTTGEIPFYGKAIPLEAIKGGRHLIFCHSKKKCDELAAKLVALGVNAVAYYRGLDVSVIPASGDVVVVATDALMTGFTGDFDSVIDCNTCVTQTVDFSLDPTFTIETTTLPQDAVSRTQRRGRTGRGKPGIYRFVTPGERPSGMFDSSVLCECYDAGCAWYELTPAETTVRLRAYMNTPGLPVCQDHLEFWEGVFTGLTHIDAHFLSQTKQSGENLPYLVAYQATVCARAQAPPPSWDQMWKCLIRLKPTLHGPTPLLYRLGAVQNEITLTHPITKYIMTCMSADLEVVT

[5] = Selectivity for human neutrophil elastase (HNE) over HCV NS3 protease
Hepatocyte = assay: Inhibition of HCV replication in hepatocytes measured by cellular replicon assay; type: functional; details: Hepatitis C virus
[6] = AUC in monkey at 2 mg/kg, po; details: rhesus monkey, plasma
[7] = Bioavailability in monkey at 2 mg/kg, po; details: rhesus monkey, in vivo
[8] = AUC in dog at 3 mg/kg, po; type: ADME, organism-based, Canis lupus familiaris; parameters: dose 3 mg/kg, route oral; details: plasma
[9] = Bioavailability in dog at 3 mg/kg, po; type: ADME, organism-based, Canis lupus familiaris; details: in vivo
[10] = Bioavailability in mouse; type: ADME, organism-based; details: in vivo
[11] = Ratio of drug level in liver against plasma in rat; type: ADME, organism-based
[12] = AUC in monkey at 3 mg/kg, po; details: rhesus monkey, plasma
[13] = Bioavailability in monkey at 3 mg/kg, po; details: rhesus monkey, in vivo

**Q.** Which AUC [1] does the source give for `CC(C)(C)NC(=O)N[C@H](C(=O)N1C[C@H]2[C@@H]([C@H]1C(=O)NC(CC1CC1)C(=O)C(N)=O)C2(C)C)C(C)(C)C` (stereo not given in full) here?
**A.** 1 µM·h

**Q.** And the bioavailability [2]?
**A.** 36%

**Q.** What about the Activity (Huh-5-2) of the same molecule?
**A.** >5 µM

**Q.** And the bioavailability [3]?
**A.** 16%

**Q.** What about the AUC [4] of the same molecule?
**A.** 1.6 µM·h

**Q.** What about the pKi (NS3) of the same molecule?
**A.** 7.89

**Q.** What about the Selectivity ratio [5] of the same molecule?
**A.** 369

**Q.** And the EC90 (Hepatocyte)?
**A.** 400 nM

**Q.** And the AUC [6]?
**A.** 0.05 µM·h

**Q.** And the bioavailability [7]?
**A.** 2%

**Q.** What does the source list for `CC(C)(C)NC(=O)N[C@H](C(=O)N1C[C@H]2[C@@H]([C@H]1C(=O)NC(CC1CCC1)C(=O)C(N)=O)C2(C)C)C(C)(C)C` (stereo not given in full) [BOCEPREVIR]?
**A.** AUC [1]: 1.52 µM·h; Activity (Huh-5-2): >5 µM; bioavailability [3]: 26%; AUC [8]: 3.08 µM·h; bioavailability [9]: 30%; bioavailability [10]: 34%; Kp [11]: 30; pKi (NS3): 7.85; Selectivity ratio [5]: 2200; EC90 (Hepatocyte): 350 nM; AUC [12]: 0.12 µM·h; bioavailability [13]: 4%

**Q.** Which AUC [1] does the source give for `CC(C)(C)OC(=O)N[C@H](C(=O)N1C[C@H]2[C@@H]([C@H]1C(=O)NC(CC1CCC1)C(=O)C(N)=O)C2(C)C)C1CCCCC1` (stereo not given in full) here?
**A.** 1.5 µM·h

**Q.** What about the Activity (Huh-5-2) of the same molecule?
**A.** >5 µM

**Q.** What about the bioavailability [3] of the same molecule?
**A.** 28%

**Q.** And the pKi (NS3)?
**A.** 8.10

**Q.** And the Selectivity ratio [5]?
**A.** 138

**Q.** What about the EC90 (Hepatocyte) of the same molecule?
**A.** 700 nM

**Q.** What about the AUC [12] of the same molecule?
**A.** 0.11 µM·h

**Q.** What about the bioavailability [13] of the same molecule?
**A.** 1%
